Molecules are shown by their SMILES.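 Cells were grown in 96-well plates and exposed to each compound for 48 hours at five concentrations; endpoints were interpolated linearly between bracketing concentrations, or set to the highest concentration if not reached. GI50: concentration for 50% inhibition of growth. TGI is the concentration that stops growth completely.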

Some test systems named below: NCI-H226 lung; SNB-19 CNS; HCT-116 colon; SF-268 CNS; CCRF-CEM leukemia; OVCAR-8 ovarian; UACC-62 melanoma; HL-60(TB) leukemia.
Assay in all cases: NCI tumour cell line growth inhibition, 48 h

Take `Fc1ccc(-c2ncn(C3CCNCC3)c2-c2ccnc(Oc3ccc4c(c3)OCO4)n2)cc1`: the GI50 with NCI-H226 lung is over 17 µM; in the test with SNB-19 CNS, over 25 µM; in the test on HCT-116 colon, 16.8 µM; in the test with SF-268 CNS it was 24.4 µM; in the test on CCRF-CEM leukemia, over 25 µM; in the test with OVCAR-8 ovarian, over 25 µM. The GI50 is over 15.7 µM in the test on UACC-62 melanoma and over 21.3 µM in the test with HL-60(TB) leukemia. For the same compound, the TGI in the test on NCI-H226 lung, in the test on SNB-19 CNS, in the test on HCT-116 colon, in the test with SF-268 CNS, in the test on CCRF-CEM leukemia and in the test with OVCAR-8 ovarian was over 25 µM each time. Besides, the TGI with UACC-62 melanoma and in the test on HL-60(TB) leukemia was over 25 µM each time.
Regarding `CCCCCCCCCCCC1=NC(C)(C)CN1C(C)(C)CO`, the GI50 with NCI-H226 lung was 5.16 µM; with SNB-19 CNS, 5.15 µM; in the test on HCT-116 colon, 1.56 µM; with SF-268 CNS it was 2.35 µM; with CCRF-CEM leukemia, 2.94 µM; with OVCAR-8 ovarian, 3.33 µM. In addition, the GI50 is 1.86 µM in the test on UACC-62 melanoma and 1.77 µM in the test on HL-60(TB) leukemia. For the same compound, the TGI in the test on NCI-H226 lung amounted to 20.5 µM; in the test on SNB-19 CNS, 20.2 µM; with HCT-116 colon, 3.06 µM; in the test with SF-268 CNS, 11.3 µM; in the test with CCRF-CEM leukemia it was 12.4 µM; in the test on OVCAR-8 ovarian it was 13.4 µM. The figures for the TGI with UACC-62 melanoma and with HL-60(TB) leukemia were 3.54 µM and 4.66 µM, respectively.
Regarding `COc1cc(-c2nc3ccccc3s2)ccc1OCCCCOc1cc2c(cc1OC)C(=O)N1CCC[C@H]1C=N2`, the GI50 with NCI-H226 lung is 2.47 µM; in the test with SNB-19 CNS, 1.57 µM; in the test on HCT-116 colon, 0.57 µM; with SF-268 CNS, 1.28 µM; in the test on CCRF-CEM leukemia it was 0.102 µM; with OVCAR-8 ovarian, 1.99 µM. Further, the GI50 with UACC-62 melanoma is 1.41 µM; with HL-60(TB) leukemia, 0.93 µM. Also, the TGI with NCI-H226 lung turned out to be 5.05 µM; in the test with SNB-19 CNS, 4.11 µM; with HCT-116 colon it was 2.19 µM; in the test with SF-268 CNS, 4.65 µM; in the test on CCRF-CEM leukemia it was 2.1 µM; with OVCAR-8 ovarian, 22.7 µM. The values for the TGI with UACC-62 melanoma and in the test on HL-60(TB) leukemia were 2.84 µM and 4.98 µM, respectively.
As to `c1ccc(-c2nn3c(c2-c2ccnc4cc(OCCN5CCOCC5)ccc24)CCC3)nc1`, the GI50 with NCI-H226 lung was over 81.2 µM; in the test on SNB-19 CNS, over 100 µM; in the test with HCT-116 colon, 31 µM; in the test with SF-268 CNS it was over 77.1 µM; with CCRF-CEM leukemia, over 95.9 µM; in the test on OVCAR-8 ovarian, over 82.6 µM. Moreover, the GI50 with UACC-62 melanoma and in the test on HL-60(TB) leukemia was over 100 µM throughout. Moreover, the TGI with NCI-H226 lung, in the test with SNB-19 CNS, in the test on HCT-116 colon, in the test with SF-268 CNS, in the test on CCRF-CEM leukemia and with OVCAR-8 ovarian was over 100 µM each time. Besides, the TGI in the test with UACC-62 melanoma and in the test with HL-60(TB) leukemia was over 100 µM each time.
For the compound `COc1ccc2c(c1)[n+](=O)c(C(=O)c1cccs1)c(C(F)(F)F)n2[O-]`, the GI50 is 9.58 µM with NCI-H226 lung; 10.7 µM in the test with SNB-19 CNS; 12.3 µM in the test with HCT-116 colon; 3.94 µM with SF-268 CNS; 11 µM with CCRF-CEM leukemia; 2.79 µM with OVCAR-8 ovarian. Besides, the GI50 in the test with UACC-62 melanoma was 5.76 µM; in the test on HL-60(TB) leukemia, 4.04 µM. Also, the TGI in the test on NCI-H226 lung was over 50 µM; in the test with SNB-19 CNS, over 50 µM; with HCT-116 colon, over 50 µM; with SF-268 CNS it was 27.4 µM; in the test on CCRF-CEM leukemia, over 50 µM; in the test with OVCAR-8 ovarian, over 50 µM. The TGI in the test with UACC-62 melanoma is 19.5 µM; in the test with HL-60(TB) leukemia it was over 50 µM.
As to `COC(C)(C)[C@@H](O)[C@H](O)C[C@H](C)C1=C2CC[C@@H]3[C@@]4(C)CC[C@@H](OC(C)=O)C(C)(C)[C@@H]4C[C@@H](OC4OC(COC(C)=O)C(O)C(O)C4O)[C@@]3(C)[C@]2(C)CC1` (stereo partly specified), the GI50 with NCI-H226 lung was 13.3 µM; in the test with SNB-19 CNS it was 12.2 µM; with HCT-116 colon, 6.09 µM; in the test with SF-268 CNS it was 10.3 µM; with CCRF-CEM leukemia it was 5.34 µM; with OVCAR-8 ovarian, 12.8 µM. Besides, the GI50 was 8.79 µM in the test with UACC-62 melanoma and 3.6 µM in the test with HL-60(TB) leukemia. The TGI is 26.7 µM with NCI-H226 lung; 25.1 µM in the test with SNB-19 CNS; 19.2 µM with HCT-116 colon; 25.9 µM with SF-268 CNS; 19.9 µM in the test on CCRF-CEM leukemia; 26.3 µM in the test with OVCAR-8 ovarian. Besides, the TGI in the test on UACC-62 melanoma turned out to be 21.7 µM; in the test with HL-60(TB) leukemia, 16 µM.
For `CSC(=S)Nc1cc(C)cc(C)n1`, the TGI with NCI-H226 lung was over 31.6 µM; with SNB-19 CNS, over 31.6 µM; in the test on HCT-116 colon it was over 10 µM; with SF-268 CNS, over 31.6 µM; in the test with CCRF-CEM leukemia it was over 31.6 µM; in the test with OVCAR-8 ovarian, over 31.6 µM. Also, the TGI in the test on UACC-62 melanoma and with HL-60(TB) leukemia was over 31.6 µM throughout.
`O=C(NCCN1CCOCC1)OCc1nc2nc(Cl)nc(N3CCOCC3)c2[nH]1`: the GI50 is 3.14 µM in the test on NCI-H226 lung; 4.18 µM with SNB-19 CNS; 2.41 µM with HCT-116 colon; 3.02 µM with SF-268 CNS; 2.9 µM in the test on CCRF-CEM leukemia; 2.09 µM in the test on OVCAR-8 ovarian. Also, the GI50 is 2.98 µM in the test with UACC-62 melanoma and 1.61 µM with HL-60(TB) leukemia. In addition, the TGI in the test with NCI-H226 lung, in the test on SNB-19 CNS, with HCT-116 colon, in the test on SF-268 CNS, with CCRF-CEM leukemia and in the test with OVCAR-8 ovarian was over 100 µM each time. The TGI in the test on UACC-62 melanoma is over 100 µM; with HL-60(TB) leukemia, 6.83 µM.
`CN1C(=O)c2ccc3ccccc3c2C1=O`: the TGI in the test on NCI-H226 lung, in the test on SNB-19 CNS, in the test on HCT-116 colon, in the test with SF-268 CNS, in the test on CCRF-CEM leukemia and in the test with OVCAR-8 ovarian was over 100 µM throughout. Also, the TGI in the test on UACC-62 melanoma and with HL-60(TB) leukemia was over 100 µM throughout.
As for `Cn1cnc(N)c(N=O)c1=O`, the TGI in the test with NCI-H226 lung, in the test on SNB-19 CNS, in the test with HCT-116 colon, with SF-268 CNS, with CCRF-CEM leukemia and with OVCAR-8 ovarian was over 10 µM each time. In addition, the TGI with UACC-62 melanoma and with HL-60(TB) leukemia was over 10 µM each time.

The values are drawn from PubChem BioAssay (NCI).
